# Test results reported in US20160076098A1, “METHODS OF DIAGNOSING AND TREATING CHRONIC PAIN” (priority 2013, published 2016).
# What was measured:
# [1] = test system: miRNAs in blood of CRPS patients; details: blood of responders, after vs before ketamine treatment
# Protocol: The experiments described herein were conducted in order to determine the utility of miRNAs as biomarkers for CRPS in both the effectiveness of a treatment and the severity and progression of individual cases. As presented herein, the changes in levels of 758 miRNAs were examined in blood of 19 CRPS patients before and after ketamine treatment, using Taqman low-density array cards.
# Ketamine Treatment Ketamine treatment was given to the subjects by sub-anesthetic continuous intravenous administration. Infusion started at a rate of 10 mg/hr and increased in steps of 10 mg/hr at every 2 hours to a maximum of 40 mg/hr (see FIG. 4). Blood samples were collected from CRPS patients before and after ketamine treatment. miRNA Analysis
# Total RNA was isolated from blood samples using mirVana kit (Applied Biosystems) and cDNA synthesis was performed. Levels of 758 miRNAs were analyzed by using a Taqman low-density array (TLDA) card.
# A positive fold change indicates a higher expression of the miRNA in responders, while a negative fold change indicates a lower expression of the miRNA in responders.
# [2] = test system: MCP-1, IFNγ and IL-1β; assay: Inflammatory markers in CRPS patients following ketamine treatment; type: in vivo, human; details: p<0.05
# Text: Additional analysis comparing miRNA profiles from responders, non-responders and 20 control subjects enabled identification of additional miRNAs.
# [3] = test system: β-endorphin; assay: β-endorphin levels in plasma of CRPS patients before and after ketamine therapy; type: in vivo, human; details: after vs before ketamine therapy
# Protocol: FIG. 8 is a graph showing no significant difference in the basal (pre-treatment) plasma levels of β-endorphin between patients and healthy controls. […] Shown are β-endorphin levels in the plasma from CRPS patients (responders and non-responders to ketamine therapy) before treatment and healthy controls and in CRPS patients before and after ketamine therapy. Responders; n=11, non-responders; n=6 and control; n=5. Results represent mean±SEM. The statistical significance was calculated using one-way ANOVA*: p<0.05 relative to non-responders after treatment.
# Analgesic pathway targets were selected for validation. Cross talk between analgesic and endocrinal systems is known (FIG. 6). Pro-opiomelanocortin (POMC) is a polypetide precursor of many peptide hormones in the hypothalamopitiutary axis, including Adrenocorticotrophic hormone (ACTH), Melanocyte stimulating hormone (MSH), and Beta-endorphin. Prohormone convertase cleaves POMC yielding important hormonal peptides ACTH, MSH, […] and β-endorphin. β-endorphin is an important member of the endogenous opioid system. Its release is important in modulation of mood, pain, inflammatory responses. Several studies have linked the expression of POMC and its daughter peptide β-endorphin to placebo effect. Non-Responders to ketamine therapy had increased expression of POMC mRNA in blood relative to the responders and healthy controls (FIG. 7). […]
# [4] = target: CYP3A4 (Homo sapiens, UniProt P08684); details: known route of elimination; cited from earlier work
# Chain of CYP3A4 (P08684 whole entry): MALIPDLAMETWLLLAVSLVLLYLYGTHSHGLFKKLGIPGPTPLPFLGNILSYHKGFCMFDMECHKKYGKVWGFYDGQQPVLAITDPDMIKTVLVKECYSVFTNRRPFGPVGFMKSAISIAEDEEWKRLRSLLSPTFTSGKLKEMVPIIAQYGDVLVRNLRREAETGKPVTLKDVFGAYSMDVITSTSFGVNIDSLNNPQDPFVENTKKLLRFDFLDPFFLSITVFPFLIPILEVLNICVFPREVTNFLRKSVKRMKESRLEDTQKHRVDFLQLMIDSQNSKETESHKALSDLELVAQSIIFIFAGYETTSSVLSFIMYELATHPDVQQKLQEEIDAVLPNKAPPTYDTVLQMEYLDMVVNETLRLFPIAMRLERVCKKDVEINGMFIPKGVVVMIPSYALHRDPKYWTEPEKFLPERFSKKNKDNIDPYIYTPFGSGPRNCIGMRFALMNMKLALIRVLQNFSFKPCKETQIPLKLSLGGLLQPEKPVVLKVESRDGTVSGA
# [5] = test system: RAW 264.7 cells; assay: Exosomal RNA sequencing (NGS) of naive and LPS-stimulated RAW 264.7 cells; type: cell-based, mouse; details: exosomal transcript level after LPS stimulation of RAW 264.7 cells compared with exosomes from naive cells
# Protocol: RAW 264.7 cells (ATCC) and RAW-Blue cells (Invivogen) were maintained in complete culture media (1×DMEM, 10% heat inactivated FBS). For exosome collection, RAW 264.7 cells (1×10^7) were plated in 150 mm dishes with complete culture media. At 24 hr, media was replaced with exosome-depleted media (1×DMEM, 10% heat-inactivated FBS depleted of exosomes by ultracentrifugation) with or without 1 μg/ml LPS (Sigma)) and incubated overnight. Media was collected in 50 ml tubes at 24 hr for exosome purification. Human THP1 macrophages were used in some experiments.
# Exosome purification from cell culture media was performed as described (McDonald et al., 2013, J Visualized Exp 2013(76):e50294). […]
# The SOLiD whole transcriptome analysis kit protocol with the fragmentation step omitted was used to generate a cDNA library for each sample. […] RNA concentration was measured using Nanodrop 1000 (NanoDrop Technologies, Wilmington, Del.). Total RNA from 3 independent exosome purifications was pooled to obtain 4 μg exosomal RNA per library (due to a limited amount of RNA in individual preparations), analyzed for integrity using the Agilent RNA 6000 Pico Kit (RNA integrity number between 1.6 and 2.1), and gel purified. […]
# [6] = test system: exosomes from human serum; assay: miRNA profiling of human serum-derived exosomes, patients with CRPS vs control subjects (TLDA cards)
# Protocol: Exosome purification from cell culture media was performed as described (McDonald et al., 2013, J Visualized Exp 2013(76):e50294). Centrifugation was used to remove cell debris (500×g for 10 min); the supernatant was transferred and centrifuged (16,500×g for 20 min) Cell-free supernatants were filtered (0.22 μm; VWR, Radnor, Pa.) and exosomes were pelleted by ultracentrifugation (120,000×g for 70 min) The exosomal pellet was resuspended in buffer specific to downstream experiments and vortexed 2×15 seconds. For RNA purification, RNase inhibitors were added after the first centrifugation step at 1 U/ml (RNAsin Plus; Promega, Madison, Wis.) and at all subsequent steps at 1 U/μl. […]
# TLDA microfluidic cards (Life Technologies) were used for miRNA profiling as previously described. […] For miRNAs profiled from exosomes collected from RAW 264.7 cells, significance was determined by applying a P value cutoff of 0.05 to the results of a paired-samples t test. For human exosomal miRNAs, significance was determined by applying the Benjamini-Hochberg false discovery rate correction to the results of a 2-tailed t test.
# To determine whether exosomal miRNAs reflect the miRNA signature in whole blood of patients with CRPS, miRNAs in exosomes purified from the serum of 6 patients with CRPS and 6 healthy controls we analyzed (FIG. 38).
# [7] = negative = lower expression following treatment
molecule,measurement,setting,value
CNC1(c2ccccc2Cl)CCCCC1=O (stereo not drawn) [ketamine],Fold change RNU44.A,[1]; [7],−1.80
same,Fold change hsa-miR-337-3p,[1]; [7],−18.20
same,Fold change hsa-miR-597,[1]; [7],−16.23
same,Fold change hsa-miR-605,[1]; [7],−36.08
same,Fold change hsa-miR-650,[1]; positive = higher expression following treatment,8.01
same,IFNγ level,[2],decreased significantly
same,IL-1β level,[2],decreased significantly
same,MCP-1 level,[2],decreased significantly
same,β-endorphin plasma level,[3]; non-responders,but not the non-responders
same,β-endorphin plasma level,[3]; responders,induced an increase in β-endorphin
same,Metabolism,[4],demethylated mostly by CYP3A4 followed by conjugation with glucuronic acid
Gdf11,PS/cpntrol ratio,[5],4.82
Pgcp,PS/cpntrol ratio,[5],2.94
RNU48 (GAUGACCCCAGGUAACUCUGAGUGUGUCGCUGAUGCCAUCACCGCAGCGCUCUGACC; chemistry not fully specified; listed as Homo sapiens),ddct,[6],2.147
same,fold-change,[6],−4.429
